Laboratory results published in the kinase profiling compilation of Christmann-Franck et al. (2016).

Assays:
Assay in all cases: KINOMEscan competition binding
Conditions in all cases: compound 10.0 µM
SLK (human) = SLK (human) (UniProt Q9H2G2)
CAMK2B (human) = CAMK2B (human) (UniProt Q13554)
[1] = test system: LRRK2 (human), Q5S007 [G2019S]
CaMK1 (human) = CaMK1 (human) (UniProt Q14012)
LATS2 (human) = LATS2 (human) (UniProt Q9NRM7)
TNIK (human) = TNIK (human) (UniProt Q9UKE5)
CDK11B (human) = CDK11B (human) (UniProt P21127)
CDK11B (human), sequence (P21127 whole entry, looked up): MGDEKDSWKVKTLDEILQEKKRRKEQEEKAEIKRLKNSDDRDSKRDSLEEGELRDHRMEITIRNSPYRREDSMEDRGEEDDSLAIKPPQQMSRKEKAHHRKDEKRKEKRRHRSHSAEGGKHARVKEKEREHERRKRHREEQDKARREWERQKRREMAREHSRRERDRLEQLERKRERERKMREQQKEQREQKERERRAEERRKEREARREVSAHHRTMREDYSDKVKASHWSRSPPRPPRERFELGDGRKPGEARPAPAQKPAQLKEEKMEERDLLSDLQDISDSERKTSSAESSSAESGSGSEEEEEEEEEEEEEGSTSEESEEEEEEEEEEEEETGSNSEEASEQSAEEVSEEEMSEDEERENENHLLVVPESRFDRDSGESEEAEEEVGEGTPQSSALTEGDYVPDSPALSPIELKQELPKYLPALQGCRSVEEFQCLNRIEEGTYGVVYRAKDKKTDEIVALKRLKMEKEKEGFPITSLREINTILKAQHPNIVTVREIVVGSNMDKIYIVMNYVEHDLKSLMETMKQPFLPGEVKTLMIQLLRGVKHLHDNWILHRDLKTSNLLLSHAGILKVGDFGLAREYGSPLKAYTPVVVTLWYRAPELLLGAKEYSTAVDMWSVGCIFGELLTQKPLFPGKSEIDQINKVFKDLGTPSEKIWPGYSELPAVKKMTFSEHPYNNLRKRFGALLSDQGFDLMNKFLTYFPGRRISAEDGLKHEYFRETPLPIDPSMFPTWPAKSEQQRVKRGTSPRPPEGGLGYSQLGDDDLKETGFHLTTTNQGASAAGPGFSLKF

FGFR2 (human) = FGFR2 (human) (UniProt P21802)
CIT (human) = CIT (human) (UniProt O14578)
HCK (human) = HCK (human) (UniProt P08631)
PIP4K2B (human) = PIP4K2B (human) (UniProt P78356)
PIP4K2B (human), sequence (P78356 whole entry, looked up): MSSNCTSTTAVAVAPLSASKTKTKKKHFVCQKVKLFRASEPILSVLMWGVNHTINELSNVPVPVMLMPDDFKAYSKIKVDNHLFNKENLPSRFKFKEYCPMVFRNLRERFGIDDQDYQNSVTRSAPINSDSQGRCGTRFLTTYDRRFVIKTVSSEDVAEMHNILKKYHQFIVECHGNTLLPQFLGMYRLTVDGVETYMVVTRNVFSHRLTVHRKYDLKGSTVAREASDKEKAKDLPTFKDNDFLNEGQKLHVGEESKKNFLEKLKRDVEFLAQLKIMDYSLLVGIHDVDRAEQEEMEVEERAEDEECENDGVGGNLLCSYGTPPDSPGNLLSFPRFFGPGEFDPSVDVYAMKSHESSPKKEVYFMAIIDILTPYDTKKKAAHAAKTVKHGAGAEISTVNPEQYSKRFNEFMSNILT

HIPK3 (human) = HIPK3 (human) (UniProt Q9H422)
MAPKAPK5 (human) = MAPKAPK5 (human) (UniProt Q8IW41)
CHEK2 (human) = CHEK2 (human) (UniProt O96017)
STK32A (human) = STK32A (human) (UniProt Q8WU08)
CAMKK2 (human) = CAMKK2 (human) (UniProt Q96RR4)
CAMKK2 (human), sequence (Q96RR4 whole entry, looked up): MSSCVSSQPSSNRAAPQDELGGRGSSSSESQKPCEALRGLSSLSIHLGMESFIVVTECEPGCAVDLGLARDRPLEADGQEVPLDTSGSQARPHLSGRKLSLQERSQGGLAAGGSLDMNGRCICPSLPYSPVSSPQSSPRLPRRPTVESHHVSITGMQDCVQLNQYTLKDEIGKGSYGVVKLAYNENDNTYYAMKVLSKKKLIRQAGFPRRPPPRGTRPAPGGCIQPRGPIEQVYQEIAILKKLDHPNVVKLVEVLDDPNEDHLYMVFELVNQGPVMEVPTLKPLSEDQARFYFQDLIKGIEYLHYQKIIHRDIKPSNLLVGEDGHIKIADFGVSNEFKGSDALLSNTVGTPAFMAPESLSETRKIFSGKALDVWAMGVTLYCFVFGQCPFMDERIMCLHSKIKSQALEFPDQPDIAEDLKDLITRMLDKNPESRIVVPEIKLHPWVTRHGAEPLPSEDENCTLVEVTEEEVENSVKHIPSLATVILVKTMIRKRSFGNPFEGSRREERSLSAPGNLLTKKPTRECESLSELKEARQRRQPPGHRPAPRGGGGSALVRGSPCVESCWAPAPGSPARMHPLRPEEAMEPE

SBK1 (human) = SBK1 (human) (UniProt Q52WX2)
GRK7 (human) = GRK7 (human) (UniProt Q8WTQ7)
ERN1 (human) = ERN1 (human) (UniProt O75460)
IRAK4 (human) = IRAK4 (human) (UniProt Q9NWZ3)
STK38L (human) = STK38L (human) (UniProt Q9Y2H1)
DYRK2 (human) = DYRK2 (human) (UniProt Q92630)
TAOK1 (human) = TAOK1 (human) (UniProt Q7L7X3)
MYO3B (human) = MYO3B (human) (UniProt Q8WXR4)
PRKCD (human) = PRKCD (human) (UniProt Q05655)
CLK2 (human) = CLK2 (human) (UniProt P49760)
CLK2 (human), sequence (P49760 whole entry, looked up): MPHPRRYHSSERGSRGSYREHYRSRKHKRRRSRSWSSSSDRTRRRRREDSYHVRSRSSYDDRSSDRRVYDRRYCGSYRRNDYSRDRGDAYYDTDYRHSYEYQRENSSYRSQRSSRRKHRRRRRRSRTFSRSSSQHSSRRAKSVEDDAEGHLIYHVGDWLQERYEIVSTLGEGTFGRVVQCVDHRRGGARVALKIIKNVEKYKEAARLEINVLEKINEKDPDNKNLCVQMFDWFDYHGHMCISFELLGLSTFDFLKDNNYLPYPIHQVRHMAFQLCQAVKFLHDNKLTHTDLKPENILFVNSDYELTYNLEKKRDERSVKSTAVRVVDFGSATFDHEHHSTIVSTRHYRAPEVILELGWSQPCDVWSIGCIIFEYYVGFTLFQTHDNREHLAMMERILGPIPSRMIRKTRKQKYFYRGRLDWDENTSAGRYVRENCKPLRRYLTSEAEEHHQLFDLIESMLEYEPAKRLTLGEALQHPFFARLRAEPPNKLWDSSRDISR

PTK6 (human) = PTK6 (human) (UniProt Q13882)
PTK6 (human), sequence (Q13882 whole entry, looked up): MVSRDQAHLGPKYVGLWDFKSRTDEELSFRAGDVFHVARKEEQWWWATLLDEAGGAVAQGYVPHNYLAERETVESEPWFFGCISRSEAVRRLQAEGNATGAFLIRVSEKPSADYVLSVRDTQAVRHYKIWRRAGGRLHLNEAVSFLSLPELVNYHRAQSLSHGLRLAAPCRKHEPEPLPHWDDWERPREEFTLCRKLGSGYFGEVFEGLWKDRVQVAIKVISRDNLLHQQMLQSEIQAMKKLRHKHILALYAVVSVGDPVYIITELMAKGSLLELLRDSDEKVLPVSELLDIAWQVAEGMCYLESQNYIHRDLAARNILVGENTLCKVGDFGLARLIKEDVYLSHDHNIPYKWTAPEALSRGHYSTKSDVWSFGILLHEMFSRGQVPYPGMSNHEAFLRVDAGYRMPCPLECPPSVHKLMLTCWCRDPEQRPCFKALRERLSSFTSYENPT

CLK3 (human) = CLK3 (human) (UniProt P49761)
CLK3 (human), sequence (P49761 whole entry, looked up): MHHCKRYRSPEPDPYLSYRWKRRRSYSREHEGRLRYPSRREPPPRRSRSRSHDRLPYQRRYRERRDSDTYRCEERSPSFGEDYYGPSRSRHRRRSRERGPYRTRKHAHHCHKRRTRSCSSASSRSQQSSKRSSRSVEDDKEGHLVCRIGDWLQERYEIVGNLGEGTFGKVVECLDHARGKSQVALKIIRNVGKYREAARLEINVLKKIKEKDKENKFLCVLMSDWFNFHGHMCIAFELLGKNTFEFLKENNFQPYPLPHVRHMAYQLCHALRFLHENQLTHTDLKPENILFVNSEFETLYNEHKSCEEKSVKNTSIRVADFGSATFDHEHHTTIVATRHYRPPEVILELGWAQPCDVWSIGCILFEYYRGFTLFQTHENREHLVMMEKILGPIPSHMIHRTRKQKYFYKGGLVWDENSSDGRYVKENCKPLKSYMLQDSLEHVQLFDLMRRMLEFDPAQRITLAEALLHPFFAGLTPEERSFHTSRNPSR

[2] = test system: EGFR (human), P00533 [L858R]
CASK (human) = CASK (human) (UniProt O14936)
[3] = test system: KIT (human), P10721 [A829P]
GRK4 (human) = GRK4 (human) (UniProt P32298)
PDPK1 (human) = PDPK1 (human) (UniProt O15530)
DCLK1 (human) = DCLK1 (human) (UniProt O15075)
DCLK1 (human), sequence (O15075 whole entry, looked up): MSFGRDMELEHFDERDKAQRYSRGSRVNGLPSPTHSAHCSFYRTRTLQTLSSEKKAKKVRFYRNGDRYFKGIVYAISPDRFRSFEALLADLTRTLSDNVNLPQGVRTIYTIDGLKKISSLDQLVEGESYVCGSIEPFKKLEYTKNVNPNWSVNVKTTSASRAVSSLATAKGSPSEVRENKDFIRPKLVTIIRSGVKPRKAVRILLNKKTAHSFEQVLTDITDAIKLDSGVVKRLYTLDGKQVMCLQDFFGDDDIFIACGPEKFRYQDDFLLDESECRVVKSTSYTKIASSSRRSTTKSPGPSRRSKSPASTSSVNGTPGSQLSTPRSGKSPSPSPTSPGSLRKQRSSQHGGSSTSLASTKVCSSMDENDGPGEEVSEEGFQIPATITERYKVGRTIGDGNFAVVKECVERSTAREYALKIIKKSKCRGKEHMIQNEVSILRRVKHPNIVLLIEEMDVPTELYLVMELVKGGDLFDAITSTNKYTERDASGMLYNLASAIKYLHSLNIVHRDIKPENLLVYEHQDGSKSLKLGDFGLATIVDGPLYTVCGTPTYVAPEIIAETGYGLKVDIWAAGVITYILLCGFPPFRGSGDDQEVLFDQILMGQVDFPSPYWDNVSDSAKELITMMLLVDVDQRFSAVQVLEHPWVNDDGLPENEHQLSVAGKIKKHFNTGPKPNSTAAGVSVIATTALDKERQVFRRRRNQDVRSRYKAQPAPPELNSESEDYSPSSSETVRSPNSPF

TGFBR1 (human) = TGFBR1 (human) (UniProt P36897)
TGFBR1 (human), sequence (P36897 whole entry, looked up): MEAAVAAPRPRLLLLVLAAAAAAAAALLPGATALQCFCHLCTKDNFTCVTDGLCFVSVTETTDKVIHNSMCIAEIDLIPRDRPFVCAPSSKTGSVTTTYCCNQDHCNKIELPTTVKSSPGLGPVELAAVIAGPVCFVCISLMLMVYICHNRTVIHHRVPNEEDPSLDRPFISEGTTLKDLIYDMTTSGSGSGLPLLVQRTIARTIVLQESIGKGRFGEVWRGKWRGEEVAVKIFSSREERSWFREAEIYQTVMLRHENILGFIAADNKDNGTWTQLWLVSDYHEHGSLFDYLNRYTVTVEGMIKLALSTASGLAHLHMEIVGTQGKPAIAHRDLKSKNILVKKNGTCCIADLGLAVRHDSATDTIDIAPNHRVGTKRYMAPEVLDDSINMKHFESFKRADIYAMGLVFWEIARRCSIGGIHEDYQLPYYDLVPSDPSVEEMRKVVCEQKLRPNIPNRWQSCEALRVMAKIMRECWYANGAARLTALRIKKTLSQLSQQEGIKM

MAPK13 (human) = MAPK13 (human) (UniProt O15264)
PIP5K1A (human) = PIP5K1A (human) (UniProt Q99755)
OXSR1 (human) = OXSR1 (human) (UniProt O95747)
OXSR1 (human), sequence (O95747 whole entry, looked up): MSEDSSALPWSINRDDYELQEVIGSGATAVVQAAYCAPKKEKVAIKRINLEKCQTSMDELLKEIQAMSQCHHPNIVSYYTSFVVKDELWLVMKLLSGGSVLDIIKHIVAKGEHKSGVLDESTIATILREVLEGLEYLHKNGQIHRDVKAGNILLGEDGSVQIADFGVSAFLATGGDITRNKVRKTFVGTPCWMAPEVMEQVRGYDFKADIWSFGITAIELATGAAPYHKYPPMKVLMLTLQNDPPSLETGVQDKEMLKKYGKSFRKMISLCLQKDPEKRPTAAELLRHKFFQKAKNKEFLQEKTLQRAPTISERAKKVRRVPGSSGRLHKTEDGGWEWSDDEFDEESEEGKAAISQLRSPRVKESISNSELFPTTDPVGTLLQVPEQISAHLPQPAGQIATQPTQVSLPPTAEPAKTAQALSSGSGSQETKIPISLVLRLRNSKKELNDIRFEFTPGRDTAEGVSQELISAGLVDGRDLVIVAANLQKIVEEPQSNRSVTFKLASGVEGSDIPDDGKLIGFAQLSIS

MAP4K5 (human) = MAP4K5 (human) (UniProt Q9Y4K4)
TGFBR2 (human) = TGFBR2 (human) (UniProt P37173)

SMILES | kinase still bound, per cent of control (SLK (human)) [%] | kinase still bound, per cent of control (CAMK2B (human)) [%] | kinase still bound, per cent of control [1] [%] | kinase still bound, per cent of control (CaMK1 (human)) [%] | kinase still bound, per cent of control (LATS2 (human)) [%] | kinase still bound, per cent of control (TNIK (human)) [%] | kinase still bound, per cent of control (CDK11B (human)) [%] | kinase still bound, per cent of control (FGFR2 (human)) [%] | kinase still bound, per cent of control (CIT (human)) [%] | kinase still bound, per cent of control (HCK (human)) [%] | kinase still bound, per cent of control (PIP4K2B (human)) [%] | kinase still bound, per cent of control (HIPK3 (human)) [%] | kinase still bound, per cent of control (MAPKAPK5 (human)) [%] | kinase still bound, per cent of control (CHEK2 (human)) [%] | kinase still bound, per cent of control (STK32A (human)) [%] | kinase still bound, per cent of control (CAMKK2 (human)) [%] | kinase still bound, per cent of control (SBK1 (human)) [%] | kinase still bound, per cent of control (GRK7 (human)) [%] | kinase still bound, per cent of control (ERN1 (human)) [%] | kinase still bound, per cent of control (IRAK4 (human)) [%] | other results
O=c1[nH]c2ccccc2n1C1CCN(Cc2ccc(-c3nc4cc5[nH]cnc5cc4nc3-c3ccccc3)cc2)CC1 | 59 | 86 | 100 | 87 | 82 | 97 | 97 | 100 | 47 | 90 | 88 | 87 | 59 | 100 | 66 | 97 | 92 | 98 | 66 | 80 | kinase still bound, per cent of control (STK38L (human)): 82%; kinase still bound, per cent of control (DYRK2 (human)): 88%; kinase still bound, per cent of control (TAOK1 (human)): 91%; kinase still bound, per cent of control (MYO3B (human)): 100%; kinase still bound, per cent of control (PRKCD (human)): 81%; kinase still bound, per cent of control (CLK2 (human)): 90%; kinase still bound, per cent of control (PTK6 (human)): 100%; kinase still bound, per cent of control (CLK3 (human)): 100%; kinase still bound, per cent of control [2]: 53%; kinase still bound, per cent of control (CASK (human)): 79%; kinase still bound, per cent of control [3]: 100%; kinase still bound, per cent of control (GRK4 (human)): 100%; kinase still bound, per cent of control (PDPK1 (human)): 93%; kinase still bound, per cent of control (DCLK1 (human)): 86%; kinase still bound, per cent of control (TGFBR1 (human)): 100%; kinase still bound, per cent of control (MAPK13 (human)): 100%; kinase still bound, per cent of control (PIP5K1A (human)): 88%; kinase still bound, per cent of control (OXSR1 (human)): 81%; kinase still bound, per cent of control (MAP4K5 (human)): 64%; kinase still bound, per cent of control (TGFBR2 (human)): 100%
C=CC(=O)Nc1ccc(C(=O)c2sc(Nc3ccc(N4CCN(C)CC4)cc3OC)nc2N)cc1 | 32 | 0 | 1.5 | 8.2 | 100 | 6 | 89 | 49 | 13 | 100 | 32 | 42 | 14 | 26 | 52 | 5 | 85 | 100 | 7.6 | 92 | kinase still bound, per cent of control (STK38L (human)): 68%; kinase still bound, per cent of control (DYRK2 (human)): 4.2%; kinase still bound, per cent of control (TAOK1 (human)): 32%; kinase still bound, per cent of control (MYO3B (human)): 83%; kinase still bound, per cent of control (PRKCD (human)): 100%; kinase still bound, per cent of control (CLK2 (human)): 0%; kinase still bound, per cent of control (PTK6 (human)): 80%; kinase still bound, per cent of control (CLK3 (human)): 8.9%; kinase still bound, per cent of control [2]: 39%; kinase still bound, per cent of control (CASK (human)): 100%; kinase still bound, per cent of control [3]: 63%; kinase still bound, per cent of control (GRK4 (human)): 52%; kinase still bound, per cent of control (PDPK1 (human)): 100%; kinase still bound, per cent of control (DCLK1 (human)): 5.6%; kinase still bound, per cent of control (TGFBR1 (human)): 96%; kinase still bound, per cent of control (MAPK13 (human)): 100%; kinase still bound, per cent of control (PIP5K1A (human)): 34%; kinase still bound, per cent of control (OXSR1 (human)): 10%; kinase still bound, per cent of control (MAP4K5 (human)): 87%; kinase still bound, per cent of control (TGFBR2 (human)): 100%
CC1=C(C(=O)Nc2cc3cn[nH]c3cc2F)C(c2ccc(C(F)(F)F)cc2)CC(=O)N1 (stereo not given) | 100 | 94 | 70 | 93 | 10 | 100 | 89 | 95 | 87 | 41 | 100 | 85 | 100 | 78 | 52 | 55 | 78 | 75 | 71 | 97 | kinase still bound, per cent of control (STK38L (human)): 12%; kinase still bound, per cent of control (DYRK2 (human)): 100%; kinase still bound, per cent of control (TAOK1 (human)): 53%; kinase still bound, per cent of control (MYO3B (human)): 100%; kinase still bound, per cent of control (PRKCD (human)): 39%; kinase still bound, per cent of control (CLK2 (human)): 54%; kinase still bound, per cent of control (PTK6 (human)): 60%; kinase still bound, per cent of control (CLK3 (human)): 65%; kinase still bound, per cent of control [2]: 90%; kinase still bound, per cent of control (CASK (human)): 88%; kinase still bound, per cent of control [3]: 58%; kinase still bound, per cent of control (GRK4 (human)): 99%; kinase still bound, per cent of control (PDPK1 (human)): 100%; kinase still bound, per cent of control (DCLK1 (human)): 65%; kinase still bound, per cent of control (TGFBR1 (human)): 100%; kinase still bound, per cent of control (MAPK13 (human)): 98%; kinase still bound, per cent of control (PIP5K1A (human)): 89%; kinase still bound, per cent of control (OXSR1 (human)): 92%; kinase still bound, per cent of control (MAP4K5 (human)): 90%; kinase still bound, per cent of control (TGFBR2 (human)): 85%
